According to patent publication US20090036380A1, “Composition And Method For Brain Tumor Therapy” (Yeda Research and Development Co., Ltd., priority 2006, published 2009):
“Also recorded” adds a separate entry of the source.

Columns and labels:
[1] = system: PC12 cells; experiment: Viability / death of PC12 cells after transfection with Karet constructs (Live/dead kit, FACS, cell counting, Hoechst); assay type: cell-based, rat; conditions: for cell viability / death versus control vector: PC12, 18 hours after transfection, dead/live kit and FACS
Experimental: FIG. 5a is a bar-graph of FACS data depicting 50 percent death of PC12 cells overexpressing Karet. Shown is a FACS analysis of PC12 viability 15 hours after transfection with Ha-Karet or control vector using Live/dead kit (Molecular probes), T-test=0.003.
FIG. 5b is a series of fluorescence photomicrographs depicting death of PC12 cells caused by Karet overexpression. Shown is a live/dead kit analysis of PC12 cells overexpressing Ha-Karet (left panels) versus control vector-transfected cells (right panels). Live cell are stained in green, dead cells are stained in red. Upper panels each show red fluorescence only (left picture) and green fluorescence only (right picture) pairs, and lower panels each show combined red and green fluorescence (left picture) and light microscopy images (right picture) pairs.
FIG. 5d is a pair of Hoechst stain histology photomicrographs depicting condensation of chromatin indicating apoptosis in PC12 cells expressing Karet, but not in control cells transfected with vector only.
FIG. 5e is a histogram depicting that Karet expression induces cell death of TrkA expressing cells, which is increased by NGF treatment and is decreased by necdin. PC12 or PC12 necdin stable cell line were electroporated with Karet or GFP control and incubated with or without 50 ng/ml NGF for 12 hours. Cells were counted and result presented as percent of control.
PC12 cells were transfected with Ha Karet, PTB, non PTB and their combinations. Cells were analyzed by FACS 18 hours after transfection using the dead/live kit. N=3; * p<0.05; **p<0.001;
The lower panel is a histogram depicting that Karet-mediated cell death correlates well with expression levels of the Karet protein. PC12 Tet-on cells were electroporated with Ha-Karet cloned under inducible promoter and incubated for 24 hours with different concentrations of doxycycline. Cells transfected with Karet but not treated with doxycycline served as control. Cells were counted and the results were determined as percent of control. The upper panel is a control Western blot depicting increased Karet expression with increased concentrations of doxycycline. Cells transfected with Karet and treated with doxycycline were lysed in NP-40 buffer and subjected to SDS-PAGE analysis. Similar amount of protein was loaded and blotted for Karet expression with Ha antibody. Proteins levels were checked with anti-tubulin antibody.
FIG. 18a—PC12 were transfected with Ha Karet, Karet F217V, PTB F217V or a control vector (pcDNA3) and 18 hours after transfection the effect of Karet or Karet mutants on cell death was determined using the dead/live kit and FACS analysis. Results are presented in percentages as compared to cells transfected with the control vector. N=3 **P<0.001. […] FIG. 18b—Cells were lysed 24 hours after transfection, fractionated on SDS-PAGE and immunoblot for anti Ha (Covance).
FIG. 19 is a histogram depicting FACS analysis of Karet-induced death. PC12 cells were co-transfected with Karet and the PTB, non-PTB or the F217V mutant at different ratios (1:1, 1:2, 1:3) and 18 hours after transfection the cells were analyzed by FACS using the dead/live kit.
Viability of cells was evaluated using the Live/dead viability/cytotoxicity kit (Cat. No. L-3224), Molecular Probes, Inc., Eugene, Oreg., USA, according to manufacturer's instructions.

[2] = system: TrkA; experiment: Co-immunoprecipitation of HA-Karet constructs with TrkA; assay type: binding; conditions: co-transfected Hek or NNR5 cells, anti-HA IP
Experimental: FIG. 3c is a co-immunoprecipitation assay depicting co-immunoprecipitation of HA-Karet with TrkA in COS cells. Karet tagged with the HA epitope was immunoprecipitated with anti-HA antibody and the blot was incubated with anti-TrkA (RTA). In control experiments the HA-Karet was substituted with vector.
FIG. 3d is a co-immunoprecipitation assay depicting interaction of Karet and TrkA in NNR5 cells transfected with TrkA.
FIG. 3e is a co-immunoprecipitation assay depicting co-immunoprecipitation of HA-Karet with TricA in co-transfected NNR5 cells immunoprecipitated with anti-HA (Roche) and Western blot with the anti-TrkA antibody C14 (Santa Cruz).
FIGS. 4a-c are co-immunoprecipitation assay results depicting the influence of NGF treatment on TrkA-Karet interaction. FIG. 4a depicts that TrkA-Karet interaction occurred prior to NGF treatment and was enhanced after ligand stimulation for 10 minutes (10 m) or 2 hours (2 h). HA-Karet was electroporated into cell line PC12, and the cells were treated with 50 ng/ml NGF for the indicated time periods in order to activate p75 and TrkA. Karet tagged with the HA epitope was immunoprecipitated with anti-HA antibody, the precipitated proteins were separated electrophoretically, and gel blots were incubated with anti-TrkA antibody (RTA). FIG. 4b depicts that necdin seems to compete with TrkA for binding to Karet. myc-Karet was electroporated into necdin stable cell line, and the cells were treated with 50 ng/ml NGF for the indicated time periods. Karet tagged with the myc epitope was immunoprecipitated with anti-myc antibody, the precipitated proteins were separated electrophoretically, and gel blots were incubated with anti-TrkA antibody (RTA). […] A blot from the same experiment was stripped and re-incubated with anti-necdin antibody. The arrow indicates the glycosylated form of TrkA (molecular weight of 140 kDa).
FIG. 7b is an immunoprecipitation assay depicting that the PTB domain-containing Karet(1-228) mutant, but not Karet(228-453) co-immunoprecipitates with TrkA in NNR5 cells. Truncation mutants tagged with the HA epitope were immunoprecipitated with anti-HA antibody, the precipitated proteins were separated electrophoretically, and gel blots were incubated with anti-TrkA (RTA).
FIGS. 24a-d depict co IP of Ha Karet with TrkA, TrkB, TrkC, p75 from co-transfected Hek cells. Cells were co-transfected with Ha Karet or control vector and TrkA, TrkB, TrkC or p75. Cells were lysed with NP40, the HA-beads (beads conjugated to anti-HA antibody) were blocked with Hek lysate, and elution was done for 30 minutes at 37° C. […]

| Substance | cell viability / death versus control vector [1] | effect on Karet-induced death in competition assay ([1]; PC12 co-transfected with Karet at ratios 1:1, 1:2, 1:3, FACS 18 hours after transfection) | co-immunoprecipitation / interaction with TrkA [2] | cell death versus Karet expression level ([1]; PC12 Tet-on cells, 24 hours, different concentrations of doxycycline) | Hoechst staining ([1]; PC12 cells expressing Karet versus control-transfected cells) |
| --- | --- | --- | --- | --- | --- |
| Karet F217V: full-length mouse Karet with phenyl alanine at position 217 point mutated to valine | do not cause death; also recorded: does not induce cell death | reduced Karet-induced death | co-immunoprecipitated |  |  |
| Karet: full-length mouse Karet protein (SEQ ID NO:1), PTB domain protein, expressed from pcDNA3 with HA tag | significant reduction in the viability |  | co-immunoprecipitated | well correlated with expression levels of the Karet protein | condensed chromatin indicating apoptotic death |
